Laboratory results reported in patent publication US20230265151A1, “GIP/GLP1 CO-AGONIST COMPOUNDS” (priority 2020, published 2023).
Like-named read-outs stand apart in the source and are kept apart here. *1 amine or outer side, *2 acyl side, *3 side chain or, on linkers, in order; H or OH if unused. Where a SMILES comes first, the peptide text is derived from it. Side-chain parts run from the residue outwards. [ ]: non-standard residue; d: D form. The star is where a group is joined. αMePhe(2-F) = C[C@](N)(Cc1ccccc1F)C(=O)O; γGlu = O=C(O)[C@H](CCC(=O)[*:2])N[*:1]; αMeY = C[C@](N)(Cc1ccc(O)cc1)C(=O)O; αMeF = C[C@](N)(Cc1ccccc1)C(=O)O; 4Pal = N[C@@H](Cc1ccncc1)C(=O)O; αMeL = CC(C)C[C@](C)(N)C(=O)O; Lauroyl = CCCCCCCCCCCC(=O)*; Orn = NCCC[C@H](N)C(=O)O; AEEA = NCCOCCOCC(=O)O; Aib = CC(C)(N)C(=O)O

Key:
Format in all cases: cell-based
[1] = target: hGLP-1R (Homo sapiens, UniProt P43220); test: Functional cAMP formation (HTRF) in HEK-293 clonal cells expressing hGLP-1R, 0.1% bovine casein, without or with 1.0% human serum albumin; set-up: expressed in transfected cells; conditions: for EC50: cAMP, 0.1% bovine casein (no human serum albumin), geometric mean, read-out: hGLP-1R EC50, nM (SEM, n)
Description: After a 30-min incubation at 37° C., the resulting increase in intracellular cAMP is quantitatively determined using a CisBio cAMP Dynamic 2 HTRF Assay Kit (62AM4PEJ). Briefly, cAMP levels within the cell are detected by adding the cAMP-d2 conjugate in cell lysis buffer (10 µL) followed by the antibody anti-cAMP-Eu^3+-Cryptate, also in cell lysis buffer (10 µL). The resulting competitive assay is incubated for at least 60 min at room temperature, and then is detected using a PerkinElmer Envision® instrument with excitation at 320 nm and emission at 665 nm and 620 nm. Envision units (emission at 665 nm/620 nm* 10,000) are inversely proportional to the amount of cAMP present and are converted to nM cAMP per well us-ing a cAMP standard curve. […] A relative EC50 value and percent top (Emax) are derived by non-linear regression analysis using the percent maximal response vs. the concentration of peptide added, fitted to a four-parameter logistic equation.

[2] = target: T1, hGCGR (Homo sapiens, UniProt P47871); test: Functional cAMP formation (HTRF) in HEK-293 clonal cells expressing hGCGR, 0.1% bovine casein, without or with 1.0% human serum albumin
T1 construct: expressed in transfected cells
Summary of the method: (§1)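 Readings of the HTRF 665/620 nm ratio, which falls as cAMP rises, were converted to nM cAMP using a standard curve after 30 min peptide exposure at 37° C.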

[3] = target: T2, hGIPR (Homo sapiens, UniProt P48546); test: Functional cAMP formation (HTRF) in HEK-293 clonal cells expressing hGIPR, 0.1% bovine casein, without or with 1.0% human serum albumin
T2 construct: expressed in transfected cells
T2 sequence (P48546 22-466): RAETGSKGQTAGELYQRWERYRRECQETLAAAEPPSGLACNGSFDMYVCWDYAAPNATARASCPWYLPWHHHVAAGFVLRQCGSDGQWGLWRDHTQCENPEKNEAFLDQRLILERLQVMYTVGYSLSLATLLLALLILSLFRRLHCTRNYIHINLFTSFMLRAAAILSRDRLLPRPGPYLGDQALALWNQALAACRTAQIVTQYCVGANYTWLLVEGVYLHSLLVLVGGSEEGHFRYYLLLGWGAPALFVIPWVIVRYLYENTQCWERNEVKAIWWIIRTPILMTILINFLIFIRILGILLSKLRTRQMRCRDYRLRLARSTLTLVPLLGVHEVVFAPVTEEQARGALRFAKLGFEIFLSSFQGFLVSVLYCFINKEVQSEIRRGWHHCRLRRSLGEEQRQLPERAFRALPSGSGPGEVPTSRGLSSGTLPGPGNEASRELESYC
Summary of the method: as §1

[4] = HEK293, cAMP, 37° C., 0.1% bovine casein, percent of maximal response to GLP-1(7-36)NH2, arithmetic mean, read-out: hGLP-1R Emax, % ± SEM
[5] = cAMP, 37° C., 0.1% bovine casein (no human serum albumin), geometric mean, read-out: hGCGR EC50, nM (SEM, n)
[6] = cAMP, incubated at 37° C., 0.1% bovine casein (no human serum albumin), geometric mean, read-out: hGCGR EC50, nM (SEM, n)

Sequence of hGLP-1R (P43220 24-463): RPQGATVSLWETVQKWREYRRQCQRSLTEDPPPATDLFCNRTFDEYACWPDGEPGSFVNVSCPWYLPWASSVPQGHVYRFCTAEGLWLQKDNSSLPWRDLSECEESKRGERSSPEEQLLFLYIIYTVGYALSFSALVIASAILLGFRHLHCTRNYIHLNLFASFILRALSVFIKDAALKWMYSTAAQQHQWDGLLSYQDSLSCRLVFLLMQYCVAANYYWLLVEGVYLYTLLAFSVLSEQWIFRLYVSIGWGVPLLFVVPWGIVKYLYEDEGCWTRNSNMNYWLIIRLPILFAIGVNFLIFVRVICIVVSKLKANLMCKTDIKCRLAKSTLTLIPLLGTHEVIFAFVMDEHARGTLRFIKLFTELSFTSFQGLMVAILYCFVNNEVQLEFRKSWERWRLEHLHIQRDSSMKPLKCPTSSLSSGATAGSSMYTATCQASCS
T1 sequence (P47871 26-477): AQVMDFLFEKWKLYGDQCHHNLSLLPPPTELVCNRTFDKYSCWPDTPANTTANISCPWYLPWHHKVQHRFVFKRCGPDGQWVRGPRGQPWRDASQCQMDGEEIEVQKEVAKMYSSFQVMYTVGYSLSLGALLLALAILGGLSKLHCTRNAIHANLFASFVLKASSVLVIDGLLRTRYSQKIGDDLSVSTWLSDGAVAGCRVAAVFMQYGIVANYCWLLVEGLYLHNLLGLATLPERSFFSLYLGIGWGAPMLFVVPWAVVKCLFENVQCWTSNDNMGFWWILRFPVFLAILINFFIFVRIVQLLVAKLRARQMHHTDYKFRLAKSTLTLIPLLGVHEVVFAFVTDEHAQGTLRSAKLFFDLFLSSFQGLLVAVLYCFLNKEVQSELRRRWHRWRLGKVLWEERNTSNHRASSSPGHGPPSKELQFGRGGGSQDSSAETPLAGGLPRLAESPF

CC[C@H](C)[C@H](NC(=O)[C@H](CC(C)C)NC(=O)[C@](C)(Cc1ccccc1)NC(=O)[C@H](CCCCNC(=O)COCCOCCNC(=O)COCCOCCNC(=O)CC[C@H](NC(=O)CCCCCCCCCCCCC(=O)O)C(=O)O)NC(=O)[C@@H](NC(=O)[C@](C)(Cc1ccccc1)NC(=O)[C@H](CCC(=O)O)NC(=O)C(C)(C)NC(=O)[C@H](CCC(N)=O)NC(=O)[C@H](C)NC(=O)[C@H](CCCCNC(=O)COCCOCCNC(=O)COCCOCCNC(=O)CC[C@H](NC(=O)CCCCCCCCCCCCC(=O)O)C(=O)O)NC(=O)[C@H](CCCN)NC(=O)[C@H](CC(=O)O)NC(=O)[C@H](CC(C)C)NC(=O)[C@](C)(CC(C)C)NC(=O)[C@@H](NC(=O)[C@H](CO)NC(=O)C1(NC(=O)[C@H](CC(=O)O)NC(=O)[C@H](CO)NC(=O)[C@@H](NC(=O)[C@](C)(Cc2ccccc2F)NC(=O)[C@@H](NC(=O)CNC(=O)[C@H](CCC(=O)O)NC(=O)C(C)(C)NC(=O)[C@@H](N)Cc2ccc(O)cc2)[C@@H](C)O)[C@@H](C)O)CCCC1)[C@@H](C)CC)[C@@H](C)CC)C(=O)N[C@@H](CCC(=O)O)C(=O)NCC(=O)NCC(=O)N1CCC[C@H]1C(=O)N[C@@H](CO)C(=O)N[C@@H](CO)C(=O)NCC(=O)N[C@@H](C)C(=O)N1CCC[C@H]1C(=O)N1CCC[C@H]1C(=O)N1CCC[C@H]1C(=O)N[C@@H](CO)C(N)=O [Example 124]
Emax ([1]; HEK293, read-out: hGLP-1R Emax, % ± SEM, percent of maximal response to GLP-1(7-36)NH2, 37° C., 0.1% bovine casein, arithmetic mean): 93.3%
EC50 ([2]; hGCGR EC50, nM (SEM, n), cAMP, incubated at 37° C., 0.1% bovine casein (no human serum albumin), geometric mean): > 9950 nM

CC[C@H](C)[C@H](NC(=O)[C@H](CC(C)C)NC(=O)[C@](C)(Cc1ccc(O)cc1)NC(=O)[C@@H](CCC(=O)O)NC(=O)[C@@H](NC(=O)[C@H](Cc1ccccc1)NC(=O)[C@H](CCC(=O)O)NC(=O)C(C)(C)NC(=O)[C@H](CCC(N)=O)NC(=O)[C@H](C)NC(=O)[C@H](CCCCNC(=O)COCCOCCNC(=O)COCCOCCNC(=O)CC[C@H](NC(=O)CCCCCCCCCCCCC(=O)O)C(=O)O)NC(=O)[C@H](CCCN)NC(=O)[C@H](CC(=O)O)NC(=O)[C@H](CC(C)C)NC(=O)[C@](C)(CC(C)C)NC(=O)[C@@H](NC(=O)[C@H](CO)NC(=O)[C@H](Cc1ccc2ccccc2c1)NC(=O)[C@H](CC(=O)O)NC(=O)[C@H](CO)NC(=O)[C@@H](NC(=O)[C@](C)(Cc1ccccc1F)NC(=O)[C@@H](NC(=O)CNC(=O)[C@H](CCC(=O)O)NC(=O)C(C)(C)NC(=O)[C@@H](N)Cc1ccc(O)cc1)[C@@H](C)O)[C@@H](C)O)[C@@H](C)CC)[C@@H](C)CC)C(=O)N[C@@H](CCCCNC(=O)COCCOCCNC(=O)COCCOCCNC(=O)CC[C@H](NC(=O)CCCCCCCCCCCCC(=O)O)C(=O)O)C(=O)NCC(=O)NCC(=O)N1CCC[C@H]1C(=O)N[C@@H](CO)C(=O)N[C@@H](CO)C(=O)NCC(=O)N[C@@H](C)C(=O)N1CCC[C@H]1C(=O)N1CCC[C@H]1C(=O)N1CCC[C@H]1C(=O)N[C@@H](CO)C(N)=O [Example 250]
Emax [1, 4]: 114%
EC50 ([1]; 37° C.): 0.414 nM
EC50 ([2]; 0.1% bovine casein and 1.0% human serum albumin, 37° C., geometric mean, read-out: hGCGR EC50, nM (SEM, n)): > 9950 nM
EC50 [2, 5]: > 9950 nM

CC[C@H](C)[C@H](NC(=O)[C@H](CCCN)NC(=O)[C@H](CC(=O)O)NC(=O)[C@H](CC(C)C)NC(=O)[C@](C)(CC(C)C)NC(=O)[C@@H](NC(=O)[C@H](CO)NC(=O)[C@H](CCCCNC(=O)COCCOCCNC(=O)COCCOCCNC(=O)CC[C@H](NC(=O)CCCCCCCCCCCCC(=O)O)C(=O)O)NC(=O)[C@H](CC(=O)O)NC(=O)[C@H](CO)NC(=O)[C@@H](NC(=O)[C@](C)(Cc1ccccc1F)NC(=O)[C@@H](NC(=O)CNC(=O)[C@H](CCC(=O)O)NC(=O)C(C)(C)NC(=O)[C@@H](N)Cc1ccc(O)cc1)[C@@H](C)O)[C@@H](C)O)[C@@H](C)CC)C(=O)N[C@@H](C)C(=O)N[C@@H](CCC(N)=O)C(=O)NC(C)(C)C(=O)N[C@@H](CCCCNC(=O)COCCOCCNC(=O)COCCOCCNC(=O)CC[C@H](NC(=O)CCCCCCCCCCCCC(=O)O)C(=O)O)C(=O)N[C@@H](Cc1ccccc1)C(=O)N[C@H](C(=O)N[C@H](CCC(=O)O)C(=O)N[C@@](C)(Cc1ccc(O)cc1)C(=O)N[C@@H](CC(C)C)C(=O)N[C@H](C(=O)N[C@@H](CCC(=O)O)C(=O)NCC(=O)NCC(=O)N1CCC[C@H]1C(=O)N[C@@H](CO)C(=O)N[C@@H](CO)C(=O)NCC(=O)N[C@@H](C)C(=O)N1CCC[C@H]1C(=O)N1CCC[C@H]1C(=O)N1CCC[C@H]1C(=O)N[C@@H](CO)C(N)=O)[C@@H](C)CC)[C@@H](C)CC [Example 105]
EC50 ([1]; incubated at 37° C.): 0.52 nM
EC50 [2, 6]: > 9950 nM

CCCCCCCCCCCC(=O)N[C@@H](CCC(=O)NCCOCCOCC(=O)NCCOCCOCC(=O)NCCOCCOCC(=O)NCCCC[C@H](NC(=O)[C@H](CO)NC(=O)[C@@H]1CCCN1C(=O)[C@@H]1CCCN1C(=O)[C@@H]1CCCN1C(=O)[C@H](C)NC(=O)CNC(=O)[C@H](CO)NC(=O)[C@H](CO)NC(=O)[C@@H]1CCCN1C(=O)CNC(=O)CNC(=O)[C@H](CCC(=O)O)NC(=O)[C@@H](NC(=O)[C@H](CC(C)C)NC(=O)[C@](C)(Cc1ccc(O)cc1)NC(=O)[C@@H](CCC(=O)O)NC(=O)[C@@H](NC(=O)[C@](C)(Cc1ccccc1)NC(=O)[C@H](CCC(=O)O)NC(=O)C(C)(C)NC(=O)[C@H](CCC(N)=O)NC(=O)[C@H](C)NC(=O)[C@H](CCCCNC(=O)COCCOCCNC(=O)COCCOCCNC(=O)COCCOCCNC(=O)CC[C@H](NC(=O)CCCCCCCCCCC)C(=O)O)NC(=O)[C@H](CCCN)NC(=O)[C@H](CC(=O)O)NC(=O)[C@H](CC(C)C)NC(=O)[C@](C)(CC(C)C)NC(=O)[C@@H](NC(=O)C(C)(C)NC(=O)[C@H](Cc1ccncc1)NC(=O)[C@H](CC(=O)O)NC(=O)[C@H](CO)NC(=O)[C@@H](NC(=O)[C@](C)(Cc1ccccc1F)NC(=O)[C@@H](NC(=O)CNC(=O)[C@H](CCC(=O)O)NC(=O)C(C)(C)NC(=O)[C@@H](N)Cc1ccc(O)cc1)[C@@H](C)O)[C@@H](C)O)[C@@H](C)CC)[C@@H](C)CC)[C@@H](C)CC)C(N)=O)C(=O)O [Example 439] (H-Y[Aib]EGT[αMePhe(2-F)]TSD[4Pal][Aib]I[αMeL]LD[Orn]K([AEEA-AEEA-AEEA-γGlu-Lauroyl])AQ[Aib]E[αMeF]I[dE][αMeY]LIEGGPSSGAPPPSK([AEEA-AEEA-AEEA-γGlu-Lauroyl])-NH2)
Emax ([1]; HEK293, cAMP, 37° C., 0.1% bovine casein and 1.0% human serum albumin, percent of maximal response to GLP-1(7-36)NH2, read-out: hGLP-1R Emax, % ± SEM): 97%
Emax [1, 4]: 95.7%
EC50 ([1]; 37° C.): 0.11 nM
EC50 [2, 5]: > 9950 nM
EC50 ([2]; cAMP, 37° C., 0.1% bovine casein and 1.0% human serum albumin, geometric mean (SEM, n), read-out: hGCGR EC50, nM (SEM, n)): > 9950 nM

CC[C@H](C)[C@H](NC(=O)[C@H](CCCN)NC(=O)[C@H](CC(=O)O)NC(=O)[C@H](CC(C)C)NC(=O)[C@](C)(CC(C)C)NC(=O)[C@@H](NC(=O)[C@H](CO)NC(=O)[C@H](CCCCNC(=O)COCCOCCNC(=O)COCCOCCNC(=O)CC[C@H](NC(=O)CCCCCCCCCCCCC(=O)O)C(=O)O)NC(=O)[C@H](CC(=O)O)NC(=O)[C@H](CO)NC(=O)[C@@H](NC(=O)[C@](C)(Cc1ccccc1F)NC(=O)[C@@H](NC(=O)CNC(=O)[C@H](CCC(=O)O)NC(=O)C(C)(C)NC(=O)[C@@H](N)Cc1ccc(O)cc1)[C@@H](C)O)[C@@H](C)O)[C@@H](C)CC)C(=O)N[C@@H](C)C(=O)N[C@@H](CCC(N)=O)C(=O)NC(C)(C)C(=O)N[C@@H](CCC(=O)O)C(=O)N[C@@](C)(Cc1ccccc1)C(=O)N[C@H](C(=O)N[C@H](CCC(=O)O)C(=O)N[C@@](C)(Cc1ccc(O)cc1)C(=O)N[C@@H](CC(C)C)C(=O)N[C@H](C(=O)N[C@@H](CCC(=O)O)C(=O)NCC(=O)NCC(=O)N[C@@H](CCCCNC(=O)COCCOCCNC(=O)COCCOCCNC(=O)CC[C@H](NC(=O)CCCCCCCCCCCCC(=O)O)C(=O)O)C(=O)N[C@@H](CO)C(=O)N[C@@H](CO)C(=O)NCC(=O)N[C@@H](C)C(=O)N1CCC[C@H]1C(=O)N1CCC[C@H]1C(=O)N1CCC[C@H]1C(=O)N[C@@H](CO)C(N)=O)[C@@H](C)CC)[C@@H](C)CC [Example 112]
Emax ([3]; HEK293, percent of maximal response to GIP(1-42)NH2, 37° C., 0.1% bovine casein, arithmetic mean, read-out: hGIPR Emax, % ± SEM): 93.6%
EC50 ([3]; cAMP, incubated at 37° C., 0.1% bovine casein (no human serum albumin), geometric mean, read-out: hGIPR EC50, nM (SEM, n)): 0.0229 nM
EC50 [2, 6]: > 9950 nM
